Assay results published in US20070074967A1, “Photodegradable protective group” (The University of Tokyo, priority 2005, published 2007).

Test: Photodeprotection by irradiation with light of 470 nm (absorption spectra, fluorescence)
Type: physicochemical
Settings: for Change of absorption peaks around 450 nm with the light irradiation / Change of absorption peaks around 490 nm with the light irradiation (release of 6-hydroxy-9-o-toluylxanthen-3-one by deprotection): 3 μM in 0.1 M sodium phosphate buffer (pH 7.4), 10% N,N-dimethylformamide, light of 470 nm, argon laser, FIG. 1
Protocol: 3,5-DNB-2-Me TG obtained in Example 1 and o-NB-2-Me TG obtained in Example 2 were each dissolved in 0.1 M sodium phosphate buffer (pH 7.4) at a concentration of 3 μM. As a cosolvent, 10% N,N-dimethylformamide was added.
Light of 470 nm was irradiated by using an argon laser. One cycle consisted of 128 pulses×10 times.
It can be understood that the peaks around 450 nm observed for 3,5-DNB-2-Me TG and o-NB-2-Me TG were lowered, and the peaks around 490 nm were highered with the light irradiation. This is because 6-hydroxy-9-o-toluylxanthen-3-one was released from the compounds by deprotection.

With `Cc1ccccc1-c1c2ccc(=O)cc-2oc2cc(OCc3cc([N+](=O)[O-])cc([N+](=O)[O-])c3)ccc12` [3,5-DNB-2-Me TG, 6-(3,5-dinitrobenzyloxy)-9-o-toluylxanthen-3-one] the “Change of absorption peaks around 450 nm with the light irradiation” value was “lowered”, the “Change of absorption peaks around 490 nm with the light irradiation (release of 6-hydroxy-9-o-toluylxanthen-3-one by deprotection)” value was “highered” and the “Fluorescence provided by released 6-hydroxy-9-o-toluylxanthen-3-one on irradiation” value (irradiated with light of 470 nm, FIG. 2) was “increase of fluorescence”.
In the case of `Cc1ccccc1-c1c2ccc(=O)cc-2oc2cc(OCc3ccccc3[N+](=O)[O-])ccc12` [o-NB-2-Me TG, 6-(2-nitrobenzyloxy)-9-o-toluylxanthen-3-one], the “Change of absorption peaks around 450 nm with the light irradiation” value is reported as “lowered” and the “Change of absorption peaks around 490 nm with the light irradiation (release of 6-hydroxy-9-o-toluylxanthen-3-one by deprotection)” value is reported as “highered”.
